US12259330B2 (ARIZONA BOARD OF REGENTS ON BEHALF OF ARIZONA STATE …, priority 2021, dated 2025)

Molecular target: T1, PCSK9 (Homo sapiens, UniProt Q8NBP7)
T1 construct: gift from Dr. Daniel Kirchhofer, Genentech
Assay: SPR measurement of PCSK9 binding to synthesized pep2-8
Conditions: synthesized peptide on streptavidin-coated gold surface, average and standard deviation over PCSK9 concentrations
Method: The synthesized peptide was immobilized to a streptavidin-coated gold surface. Different concentrations of PCSK9 were flowed to the surface to measure the binding kinetics.
The SPR sensor chip was fabricated by coating 1.5 nm Cr and then 47 nm Au on cover glass (no. 1 VWR) using an e-beam evaporator. Prior to surface functionalization, the gold surface was cleaned with ethanol and DI water twice, dried by N2, and annealed by H2 flame. The gold chip was immersed in a mixture of 0.2 mM SH-PEG8-COOH and 0.2 mM MT(PEG)4 overnight. Then, —COOH was activated using NHS/EDC chemistry (50 mM NHS and 200 mM EDC) for 20 min and incubated with 0.1 mg/mL streptavidin in PBS for 30 min to allow immobilization. The remaining unreacted sites were quenched with 10 mM ethanolamine and the nonspecific binding sites were blocked with SuperBlock for 10 min. […] The functionalized chip was finally rinsed with PBS before the measurement.

T1 sequence (Q8NBP7 153-692, species assumed): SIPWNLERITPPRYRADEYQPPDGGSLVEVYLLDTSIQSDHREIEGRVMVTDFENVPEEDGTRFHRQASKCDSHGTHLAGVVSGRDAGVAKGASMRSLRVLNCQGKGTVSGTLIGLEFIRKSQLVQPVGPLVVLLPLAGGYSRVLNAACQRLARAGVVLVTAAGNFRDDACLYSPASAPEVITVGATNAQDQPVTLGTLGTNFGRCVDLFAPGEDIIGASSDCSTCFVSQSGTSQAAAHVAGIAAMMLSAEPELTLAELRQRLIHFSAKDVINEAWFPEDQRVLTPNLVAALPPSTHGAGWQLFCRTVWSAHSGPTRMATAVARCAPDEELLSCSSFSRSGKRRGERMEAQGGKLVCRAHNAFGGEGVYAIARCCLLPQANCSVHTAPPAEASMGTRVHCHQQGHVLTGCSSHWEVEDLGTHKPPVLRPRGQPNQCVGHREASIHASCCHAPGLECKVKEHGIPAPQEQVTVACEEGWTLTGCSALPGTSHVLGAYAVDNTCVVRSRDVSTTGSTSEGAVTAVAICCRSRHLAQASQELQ

## CC(=O)N[C@H](C(=O)N[C@H](C(=O)N[C@@H](Cc1ccccc1)C(=O)N[C@H](C(=O)N[C@@H](CO)C(=O)N[C@@H](Cc1c[nH]c2ccccc12)C(=O)N[C@@H](CCC(=O)O)C(=O)N[C@@H](CCC(=O)O)C(=O)N[C@@H](Cc1ccc(O)cc1)C(=O)N[C@@H](CC(C)C)C(=O)N[C@@H](CC(=O)O)C(=O)N[C@@H](Cc1c[nH]c2ccccc12)C(=O)N[C@H](C(N)=O)C(C)C)[C@@H](C)O)C(C)C)[C@@H](C)O [pep2-8]
  kd: (1.73±0.25)×10^−1 s^−1
